In US9249095B2, “2-methylthiopyrrolidines and their use for modulating bacterial quorum sensing” (priority 2011, dated 2016):

Tests used:
[1] = molecular target: LasR (Pseudomonas aeruginosa, UniProt P25084); conditions: Smith et al, reference 9; cited from earlier work
[2] = tested on: P. aeruginosa las AHL-mediated pathway (PlasI-lacZ reporter); experiment: Anti-quorum sensing β-galactosidase assay, las biomonitor (PlasI-lacZ with lasR expressed in E. coli DH5α); type: cell-based, Pseudomonas aeruginosa; conditions: for effect on las activity / lasI promoter expression (in words): tested at 50-200 μg/mL against 2 μM 3-oxo-C12-AHL
Protocol: Anti-Quorum Sensing Assay (β-Galactosidase Assay). An overnight (O/N) culture of Escherichia coli DH5α harboring the plasmids pSC11, which contains a PlasI-lacZ translational fusion (24), and pJN105L, which contains a PBAD-lasR expression plasmid (25) grown in LB media (10 g tryptone, 5 g yeast extract, 5 g sodium chloride per liter) supplemented with ampillicin (100 μg/ml) and gentamycin (15 μg/ml), was diluted to an OD600 of 0.150. At this time, arabinose (0.2% w/v), N-3-(oxododecanoyl)homoserine lactone (3-oxo-C12-AHL; 2 μM), and either the compound under analysis or solvent (DMSO), was added to the culture (1.5 mL). A negative control containing only solvent and arabinose (0.2% w/v) was also assayed. The cultures were incubated with shaking for three hours at 37° C.
(§1) The conditions for the rhl biomonitor Escherichia coli DH5α harboring pECP61.5 plasmid, which contains Ptac-rhlR and PrhlA-lacZ (4), were essentially same except that the LB medium was only supplemented with ampillicin (100 μg/ml), the O/N culture was diluted to an OD600 of 0.150, induced with 1 mM IPTG, 2 μM C4—HSL and the compounds or the controls added when the OD600 reached 1.0. After incubation at 37° C. for 4 hours with shaking, β-galactosidase activity was assayed as described previously (28). Miller units were calculated as described (29). Assays were repeated at least twice. For each biological replicate, experimental triplicates were performed and the average percent activity calculated by dividing the average Miller units from the samples containing compound or extract by the average Miller units from the sample containing solvent and multiplying by 100. Significance of inhibition was determined using a paired two-tailed Student t-test.
(§2) Strains: E. coli DH5α harboring a PBAD-lasR expression plasmid and a PlasI-lacZ translational fusion plasmid was used as a biomonitor for the P. aeruginosa Las QS system, and e. coli XL-1Blue harboring a plasmid containing rhlA::lacZ translational fusion and Ptac-rhlR was used as a biomonitor for the P. aeruginosa Rhl QS system. V. harveyi strain B392 (MAV) was used.
Screening against las signaling. To determine the effect of the lactams (7, 16, and 17) and the cyclic azahemiacetal derivatives (10, 20 and 21) on the P. aeruginosa las AHL-mediated pathway, a las-dependent β-galactosidase reporter (PlasI-lacZ) was expressed with lasR in E. coli (24-25). […] The effect of synthetic compounds on the las activity was also compared with the addition of DMSO as a solvent. The propylthio lactam 7a and its azahemiacetal counterpart 10a were initially screened at a concentration of 100 μg/mL for their activity against the las system. […] This was dependent upon the addition of 2 μM of 3-oxo-C12-AHL. […] Cell growth was not inhibited by the addition of lactam and azahemiacetal compounds at the tested concentrations (data not shown).

[3] = tested on: Vibrio harveyi; experiment: Luminescence assay in Vibrio harveyi; type: cell-based
Protocol: Luminescence Assay: Vibrio harveyi was grown in AB medium. A 2.5 mL aliquot of overnight culture of V. harveyi was added to 2.5 μL and 10 μL of each compound as well as the solvent. The compound was dissolved in water or DMSO to serve as a control. Growth and luminescence were measured simultaneously in a modified Spec20 for three hours. Growth was measured as OD600 and luminescence was recorded in light units (1 LU=6.51×10^8 quanta/sec/mL).
as §2

[4] = tested on: P. aeruginosa rhl AHL-mediated pathway (PrhlA-lacZ reporter); experiment: Anti-quorum sensing β-galactosidase assay, rhl biomonitor (PrhlA-lacZ with rhlR expressed in E. coli); type: cell-based, Pseudomonas aeruginosa; conditions: for activity at 50 µg/mL / activity at 100 µg/mL / activity at 150 µg/mL / activity at 200 µg/mL: Escherichia coli, 4 h, read-out: Percent Activity ± Standard Deviation (PrhlA-lacZ expression relative to DMSO treated control); for effect on rhl activity (in words): tested at 50-200 μg/mL against 2 μM C4-AHL
Protocol: as §1, §2
Screening Against the rhl Pathway. To determine the effect of the lactams (7, 16, and 17) and the cyclic azahemiacetal derivatives (10, 20 and 21) on the P. aeruginosa rhl AHL-mediated pathways, a rhl-dependent β-galactosidase reporter (PrhlA-lacZ) was expressed with rhlR in E. coli (24-25). […] The lactam analogues 7a-d stimulated rhl QS activities at higher concentrations with moderate potency. […] The strong inhibition observed with propylthio 10a and hexylthio 10b azahemiacetal analogues having side chain lengths similar to C4-AHL is in agreement with the structure activity relationship reported for various synthetic AHL mimetics targeting RhlR (26).

[5] = Pseudomonas aeruginosa, read-out: inhibition of las activity
[6] = Pseudomonas aeruginosa, read-out: inhibition of las reporter activity

Sequence of LasR (P25084 whole entry): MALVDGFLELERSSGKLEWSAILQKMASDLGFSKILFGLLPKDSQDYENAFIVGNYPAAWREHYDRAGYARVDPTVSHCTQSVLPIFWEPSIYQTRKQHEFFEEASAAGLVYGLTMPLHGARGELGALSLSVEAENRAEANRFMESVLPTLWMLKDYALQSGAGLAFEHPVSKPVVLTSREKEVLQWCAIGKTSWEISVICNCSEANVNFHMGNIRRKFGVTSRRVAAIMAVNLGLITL

SMILES: CCCCCCCCCC(=O)CC(=O)NC1CCCCC1=O (stereo not shown) [3-oxo-C12-(2-aminocyclohexanone)]
- antagonism of LasR system (in words) [1]: strong antagonist

SMILES: CCCCCCCCCC(=O)CC(=O)N[C@H]1CCOC1=O [3-oxo-C12-AHL, N-3-(oxododecanoyl)homoserine lactone, reference compound]
- effect on las activity / lasI promoter expression (in words) [2]: activated the PlasI-lacZ

SMILES: N[C@@H](CCSCC1C(O)C(O)C(=O)N1Cc1ccccc1)C(=O)O (stereo partly shown) [BDOH]
- anti-QS effect against V. harveyi (in words) [3]: strong anti-QS effect

SMILES: CCCSCC1CCC(=O)N1 (stereo not shown) [Compound 7a, 5-(Propylthiomethyl)pyrrolidin-2-one]
- inhibition at 100 µg/mL [2, 5]: ~28%
- effect on las activity / lasI promoter expression (in words) [2]: inhibited las activity at all concentrations tested
- effect on las activity / lasI promoter expression (in words) ([2]; listed as OMPP): dosed dependent inhibition
- activity at 50 µg/mL [4]: 104 ± 24%
- activity at 100 µg/mL [4]: 118%
- activity at 150 µg/mL [4]: 104 ± 13%
- activity at 200 µg/mL [4]: 108 ± 17%

SMILES: CCCCCCSCC1CCC(=O)N1 (stereo not shown) [Compound 7b, 5-(Hexylthiomethyl)pyrrolidin-2-one]
- effect on las activity / lasI promoter expression (in words) [2]: dosed dependent inhibition
- activity at 50 µg/mL [4]: 126 ± 8%
- activity at 100 µg/mL [4]: 126 ± 29%
- activity at 150 µg/mL [4]: 130 ± 31%
- effect on rhl activity (in words) [4]: most active

SMILES: CCCCCCCCCSCC1CCC(=O)N1 (stereo not shown) [Compound 7c, 5-(Nonylthiomethyl)pyrrolidin-2-one]
- inhibition at 50 µg/mL [2, 5]: 28%
- effect on las activity / lasI promoter expression (in words) [2]: greatest inhibition at all concentrations tested
- activity at 50 µg/mL [4]: 95 ± 3%
- activity at 100 µg/mL [4]: 115 ± 30%
- activity at 150 µg/mL [4]: 108 ± 12%
- activity at 200 µg/mL [4]: 137 ± 46%

SMILES: CCCCCCCCCCCCSCC1CCC(=O)N1 (stereo not shown) [Compound 7d, 5-(Dodecylthiomethyl)pyrrolidin-2-one]
- inhibition at 50 µg/mL [2, 5]: 48%
- effect on las activity / lasI promoter expression (in words) [2]: greatest inhibition at all concentrations tested
- activity at 50 µg/mL [4]: 103 ± 7%
- activity at 100 µg/mL [4]: 106 ± 6%
- activity at 150 µg/mL [4]: 109 ± 8%
- activity at 200 µg/mL [4]: 106 ± 5%

SMILES: CCCSCC1CCC(O)N1 (stereo not shown) [Compound 10a, 5-(Propylthiomethyl)pyrrolidin-2-ol]
- stimulation of las reporter activity ([2]; 50 μg/mL, 2 μM 3-oxo-C12-AHL): ~2.3 fold
- enhancement of las reporter activity ([2]; 100 μg/mL, 2 μM 3-oxo-C12-AHL): 15%
- inhibition at 150 µg/mL [2, 6]: 69%
- inhibition at 200 µg/mL [2, 6]: 89%
- activity at 50 µg/mL [4]: 121 ± 6%
- activity at 100 µg/mL [4]: 138 ± 3%
- activity at 200 µg/mL [4]: 9%
- effect on rhl activity (in words) [4]: inhibited rhl activity
- anti-QS effect against V. harveyi (in words) [3]: strong anti-QS effect

SMILES: CCCCCCSCC1CCC(O)N1 (stereo not shown) [Compound 10b, 5-(Hexylthiomethyl)pyrrolidin-2-ol]
- inhibition of las activity ([2]; all concentrations tested higher than 50 μg/mL): 100%
- effect on las activity / lasI promoter expression (in words) [2]: stimulated QS at 50 μg/mL but with much lesser potency
- activity at 50 µg/mL [4]: 26%
- inhibition of rhl signaling (in words) ([4]; concentrations of 100 μg/mL and higher): completely inhibited
- effect on rhl activity (in words) [4]: inhibited rhl activity

SMILES: CCCCCCCCCSCC1CCC(O)N1 (stereo not shown) [Compound 10c, 5-(Nonanylthiomethyl)pyrrolidin-2-ol]
- effect on las activity / lasI promoter expression (in words) [2]: moderate activity
- activity at 50 µg/mL [4]: 93 ± 12%
- activity at 100 µg/mL [4]: 80 ± 13%
- activity at 150 µg/mL [4]: 100 ± 11%
- activity at 200 µg/mL [4]: 99 ± 3%
- effect on rhl activity (in words) [4]: inactive

SMILES: CCCCCCCCCCCCSCC1CCC(O)N1 (stereo not shown) [Compound 10d, 5-(Dodecylthiomethyl)pyrrolidin-2-ol]
- effect on las activity / lasI promoter expression (in words) [2]: moderate activity
- activity at 50 µg/mL [4]: 98 ± 13%
- activity at 100 µg/mL [4]: 93 ± 27%
- activity at 150 µg/mL [4]: 91 ± 8%
- activity at 200 µg/mL [4]: 96 ± 5%
- effect on rhl activity (in words) [4]: inactive

SMILES: CCCCCCSCC1NC(=O)C(O)C1O (stereo not shown) [Compound 16, 3,4-Dihydroxy-5-(hexylthiomethyl)pyrrolidin-2-one]
- effect on las activity / lasI promoter expression (in words) [2]: inhibit las activity at all concentrations tested but only with moderate potency
- activity at 50 µg/mL [4]: 132 ± 36%
- activity at 100 µg/mL [4]: 129 ± 10%
- activity at 150 µg/mL [4]: 148 ± 9%
- activity at 200 µg/mL [4]: 161 ± 7%
- effect on rhl activity (in words) [4]: stimulated rhl activities with moderate potency

SMILES: CCCCCCCCCSCC1NC(=O)C(O)C1O (stereo not shown) [Compound 17, 3,4-Dihydroxy-5-(nonylthiomethyl)pyrrolidin-2-one]
- effect on las activity / lasI promoter expression (in words) [2]: inhibit las activity at all concentrations tested but only with moderate potency
- activity at 50 µg/mL [4]: 106 ± 3%
- activity at 150 µg/mL [4]: 115 ± 11%
- activity at 200 µg/mL [4]: 135 ± 5%
- effect on rhl activity (in words) [4]: stimulated rhl activities with moderate potency

SMILES: CCCCCCSCC1NC(O)C(O)C1O (stereo not shown) [Compound 20, 3,4-Dihydroxy-5-(hexylthiomethyl)pyrrolidin-2-ol]
- effect on las activity / lasI promoter expression (in words) [2]: inhibit las activity at all concentrations tested but only with moderate potency
- activity at 50 µg/mL [4]: 94 ± 8%
- activity at 100 µg/mL [4]: 105 ± 3%
- activity at 150 µg/mL [4]: 109 ± 12%
- activity at 200 µg/mL [4]: 116 ± 18%
- effect on rhl activity (in words) [4]: stimulated rhl activities with moderate potency

SMILES: CCCCCCCCCSCC1NC(O)C(O)C1O (stereo not shown) [Compound 21, 3,4-Dihydroxy-5-(nonylthiomethyl)pyrrolidin-2-ol]
- effect on las activity / lasI promoter expression (in words) [2]: inhibit las activity at all concentrations tested but only with moderate potency
- activity at 50 µg/mL [4]: 98 ± 5%
- activity at 150 µg/mL [4]: 116 ± 9%
- activity at 200 µg/mL [4]: 121 ± 14%
- effect on rhl activity (in words) [4]: stimulated rhl activities with moderate potency

SMILES: CCCC(=O)N[C@H]1CCOC1=O [Compound C4-AHL, N-butanoyl-L-homoserine lactone, reference compound]
- effect on rhl activity (in words) [4]: activated the rhl β-galactosidase reporter
